Patent publication US20250319053A1, “INHIBITORS OF THE PEPTIDYL-PROLYL CIS/TRANS ISOMERASE (PIN1), COMBINATIONS AND USES THEREOF” (DANA-FARBER CANCER INSTITUTE, INC., priority 2021, published 2025)

Experiments:
Pin1 = Pin1 (Homo sapiens, UniProt Q13526); test: Immunoblotting for Pin1 and substrate oncoproteins in CAFs; assay type: cell-based; parameters: endogenous in cells; settings: 72 hrs
Experimental: Cultured cells were lysed in RIPA buffer (50 mM Tris-HCl, pH 7.2, 150 mM NaCl, 1% NP40, 0.1% sodium dodecyl sulfate (SDS), 0.25% Na-deoxycholate) with freshly added phosphatase inhibitors containing 5 mM NaF and 0.2 mM sodium orthovanadate (NA3VO4), and proteinase inhibitors containing 2 μg/mL Aprotinin, 2 μg/mL Leupeptin, 2 μg/mL Pepstatin A, 1 mM DTT (dithiothreitol), 0.5 mM 4-(2-aminoethyl)-benzenesulfonyl fluoride (AEBSF), and 20 mM Chymotrypsin, and then mixed with the SDS sample buffer and loaded onto a gel after boiling for 10 minutes at 95° C. The proteins were resolved by polyacrylamide gel electrophoresis and transferred to PVDF membrane. The transferred membrane was washed three times with Tris-buffered saline containing 0.1% Tween 20 (TBST). After blocking with TBST containing 5% milk or 3% bovine serum albumin (BSA) for 1 h room temperature, the membrane was incubated with the appropriate primary antibody (diluted 1:500-1:10000) in 5% milk or 3% BSA-containing TBST at 4° C. overnight. […] After three extensive washes with TBST for a total of 30 min, the immunoblots were visualized by enhanced chemi-luminescence. Immunoblotting results were quantified using ImageJ (NIH).

[1] = system: human PDAC cells (PDAC1 and PDAC2); test: Cell proliferation assay (CellTiter-Glo) in PDAC cells; assay type: cell-based; settings: 72 hrs
Experimental: Cells were seeded at a density of 5000 cells (PDAC1 and PDAC2), or 3000 cells (CAF1 and CAF2) per well in 96-well flat-bottomed plates and incubated for 24 h in culture medium. […] Control cells received dimethyl sulfoxide (DMSO) at a concentration equal to that of drug-treated cells for 72 hours. The cell viability was determined by CellTiter-Glo® 2.0 Assay (Promega) following the manufacturer's instructions.

splenocytes = test: Immune profiling of splenocytes by flow cytometry; assay type: in vivo, mouse; settings: 40 mg/kg i.p. daily for 5 weeks
Experimental: After filtered, cell lysate was collected. To assess cell surface expressions, cells were harvested by non-enzymatic cell dissociation solution, and resuspend in blocking solution (Cell Staining Buffer, BioLegend). Cells were incubated with following antibodies; […] For FOXP3 staining, cells were fixed and permeabilized using Foxp3/Transcription Factor Staining Buffer Set (00-5523, eBioscience), and incubated with FOXP3-FITC (11-5773-82, Invitrogen) for 30 mins at RT. For Granzyme B staining, cells were fixed and permeabilized using Intracellular Fixation & Permeabilization Kit (88-8824-00, eBioscience), and incubated with Granzyme B-FITC (515403, BioLegend) for 30 mins at RT. All antibodies were diluted according to manufacture instruction. Cells were analyzed using CytoFLEX flow cytometer and CytExpert software (Beckman Coulter, IN, USA). Table 2 is a table of immune profiling of splenocytes from Pin1i−2 treated non-tumor-bearing B6 mice. See also FIG. 1A-FIG. 1G, FIG. 8A-FIG. 8O, and FIG. 9A-9L. WT B6 mice (non-tumor-bearing mice) were treated with vehicle or Pin1i−2 (40 mg/kg, i.p., daily) for 5 weeks, followed by examining the immune profile of splenocytes using flow cytometry (n=5).

Sequence of Pin1 (Q13526 whole entry): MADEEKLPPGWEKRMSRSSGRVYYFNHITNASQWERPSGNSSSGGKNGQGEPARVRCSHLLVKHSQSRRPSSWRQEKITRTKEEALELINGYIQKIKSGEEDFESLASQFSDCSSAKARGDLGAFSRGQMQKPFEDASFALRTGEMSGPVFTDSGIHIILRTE

Question: With `CC(C)(C)CN(C(=O)CCl)C1CCS(=O)(=O)C1` (stereo not drawn) [Pin1i−2, sulfopin] as the molecule, how does the “Pin1 and its substrate oncoproteins (IB)” value (Pin1) read?
Answer: Its value is “dose-dependently reduced Pin1 and its many substrate oncoproteins”.

Question: And the “cell growth (proliferation assay)” value ([1]; PDAC cells)?
Answer: Its value is “dose-dependently suppress cell growth”.

Question: What about the “Pin1 KO cell growth” value ([1]; Pin1-KO PDAC2 cells) of the same molecule?
Answer: The value was “fails to suppress Pin1 KO cell growth”.

Question: And the “CD3−CD11b+ Myeloid cells” value (splenocytes; n=5)?
Answer: Its value is 6.79 % of CD45+ cell.

Question: And the “CD8a+ T-cell” value (splenocytes; n=5)?
Answer: Its value is 14.30 % of CD45+ cell.

Question: What about the “CD11b+Ly6G+ Myeloid Cells” value (splenocytes; n=5) of the same molecule?
Answer: The value was 1.71 % of CD45+ cell.

Question: And the “CD11c+MHC-II+ DCs” value (splenocytes; n=5)?
Answer: Its value is 1.48 % of CD45+ cell.

Question: What about the “CD45+CD3+ Cells” value (splenocytes; n=5) of the same molecule?
Answer: Its value is 27.77 % of CD45+ cell.

Question: And the “F4/80+ Macrophages” value (splenocytes; n=5)?
Answer: The value was 3.54 % of CD45+ cell.

Question: And the CTLA4 (splenocytes; listed under CD8a+ T-cell)?
Answer: The CTLA4 was 76.08 MFI.

Question: And the Lag3 (splenocytes; listed under CD8a+ T-cell)?
Answer: The Lag3 was 449.84 MFI.

Question: And the MHC-ClassI (splenocytes; listed under CD8a+ T-cell)?
Answer: Its MHC-ClassI is 11456.80 MFI.

Question: What about the PD-1 (splenocytes; listed under CD8a+ T-cell) of the same molecule?
Answer: The PD-1 was 67.90 MFI.

Question: And the PD-L1 (splenocytes; listed under CD11b+Ly6G+ Myeloid Cells)?
Answer: The PD-L1 was 12447.46 MFI.

Question: And the PD-L1 (splenocytes; listed under CD11c+MHC-II+ DCs)?
Answer: Its PD-L1 is 89012.88 MFI.
